Assay results published in patent publication US20240239766A1, “3-AMINO PIPERIDYL SODIUM CHANNEL INHIBITORS” (Genentech, Inc., priority 2021, published 2024).
Counter-ions that a name gives are not always drawn.

Molecular target: hNav1.7 (Homo sapiens (Human), UniProt Q15858)
Assay: Patch voltage clamp electrophysiology assay (EP), Syncropatch 384PE, CHO cells expressing Nav1.7
Type: cell-based
Details: holding potential −50 mV; 7.5 min compound incubation; read-out: EP SP hNav1.7 EVO (IC50)

Sequence of hNav1.7 (Q15858 other isoform, or with tags, fused parts or gaps): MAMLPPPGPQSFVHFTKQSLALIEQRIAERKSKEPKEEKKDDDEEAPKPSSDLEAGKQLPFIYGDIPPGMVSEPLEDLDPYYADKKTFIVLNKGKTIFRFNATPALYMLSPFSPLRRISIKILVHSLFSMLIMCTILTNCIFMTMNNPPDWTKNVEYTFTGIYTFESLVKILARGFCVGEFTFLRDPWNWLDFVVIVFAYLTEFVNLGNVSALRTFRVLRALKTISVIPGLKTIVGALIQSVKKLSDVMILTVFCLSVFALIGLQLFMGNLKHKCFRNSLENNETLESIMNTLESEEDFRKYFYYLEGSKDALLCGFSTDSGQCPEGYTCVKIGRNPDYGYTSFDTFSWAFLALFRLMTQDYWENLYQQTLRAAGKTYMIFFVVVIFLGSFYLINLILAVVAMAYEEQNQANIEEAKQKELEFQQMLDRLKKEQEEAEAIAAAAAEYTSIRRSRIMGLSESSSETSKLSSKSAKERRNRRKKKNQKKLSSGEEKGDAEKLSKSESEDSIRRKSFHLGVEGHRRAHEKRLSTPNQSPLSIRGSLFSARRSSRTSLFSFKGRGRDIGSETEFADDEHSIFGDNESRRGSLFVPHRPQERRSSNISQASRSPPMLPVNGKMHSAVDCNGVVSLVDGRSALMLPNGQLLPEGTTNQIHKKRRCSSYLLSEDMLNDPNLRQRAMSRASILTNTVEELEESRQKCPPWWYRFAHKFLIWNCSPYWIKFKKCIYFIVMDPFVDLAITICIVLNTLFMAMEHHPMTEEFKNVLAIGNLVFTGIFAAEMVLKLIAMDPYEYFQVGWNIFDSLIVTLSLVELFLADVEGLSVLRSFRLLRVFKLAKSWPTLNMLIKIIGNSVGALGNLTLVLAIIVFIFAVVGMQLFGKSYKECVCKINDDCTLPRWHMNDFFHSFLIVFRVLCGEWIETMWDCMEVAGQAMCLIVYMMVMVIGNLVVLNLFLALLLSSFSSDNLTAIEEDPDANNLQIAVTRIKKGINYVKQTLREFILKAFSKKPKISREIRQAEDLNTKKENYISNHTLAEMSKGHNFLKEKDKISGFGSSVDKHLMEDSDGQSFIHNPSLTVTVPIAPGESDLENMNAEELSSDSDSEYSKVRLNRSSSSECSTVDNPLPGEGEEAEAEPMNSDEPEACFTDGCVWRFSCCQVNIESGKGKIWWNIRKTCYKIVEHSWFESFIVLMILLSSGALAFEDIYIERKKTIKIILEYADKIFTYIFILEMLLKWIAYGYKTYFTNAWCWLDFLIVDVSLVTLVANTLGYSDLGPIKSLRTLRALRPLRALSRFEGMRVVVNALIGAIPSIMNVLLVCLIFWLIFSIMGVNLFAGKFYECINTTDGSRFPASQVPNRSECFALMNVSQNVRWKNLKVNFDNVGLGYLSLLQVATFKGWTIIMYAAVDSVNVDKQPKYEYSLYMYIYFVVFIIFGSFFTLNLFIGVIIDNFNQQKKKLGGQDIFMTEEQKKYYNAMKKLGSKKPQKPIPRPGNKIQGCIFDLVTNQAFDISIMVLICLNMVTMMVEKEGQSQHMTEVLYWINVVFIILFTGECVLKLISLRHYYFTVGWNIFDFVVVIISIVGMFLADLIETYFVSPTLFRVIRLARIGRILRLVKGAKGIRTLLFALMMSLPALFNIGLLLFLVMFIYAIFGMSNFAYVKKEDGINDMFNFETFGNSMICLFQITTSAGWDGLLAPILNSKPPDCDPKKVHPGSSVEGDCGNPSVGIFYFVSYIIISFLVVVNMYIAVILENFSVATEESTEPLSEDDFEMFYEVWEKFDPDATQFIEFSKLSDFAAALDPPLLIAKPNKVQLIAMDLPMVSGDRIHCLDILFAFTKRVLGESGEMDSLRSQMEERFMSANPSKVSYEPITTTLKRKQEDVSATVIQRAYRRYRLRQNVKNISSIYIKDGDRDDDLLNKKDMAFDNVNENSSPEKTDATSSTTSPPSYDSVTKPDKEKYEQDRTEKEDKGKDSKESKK

Compound | IC50
CN(C)[C@]1(C2CC(c3cccc(C(F)(F)F)c3)C2)CCCN(c2cc(F)c(S(=O)(=O)Nc3ccncn3)c(F)c2)C1 (stereo partly drawn) [Example 96, 4-((S)-3-(Dimethylamino)-3-((1s,3R)-3-(3-(trifluoromethyl)-phenyl)cyclobutyl)piperidin-1-yl)-2,6-difluoro-N-(pyrimidin-4-yl)benzenesulfonamide] | 1.81 nM
CN(C)[C@@]1(CCc2cccc(C(F)(F)F)n2)CCCN(c2cc(F)c(S(=O)(=O)Nc3ccncn3)c(F)c2)C1 [Example 97, (R)-4-(3-(Dimethylamino)-3-(2-(6-(trifluoromethyl)pyridin-2-yl)ethyl)-piperidin-1-yl)-2,6-difluoro-N-(pyrimidin-4-yl)benzenesulfonamide formate] | 10000 nM
CN(C)[C@]1(CCc2cccc(C(F)(F)F)n2)CCCN(c2cc(F)c(S(=O)(=O)Nc3ccncn3)c(F)c2)C1 [Example 98, (S)-4-(3-(Dimethylamino)-3-(2-(6-(trifluoromethyl)pyridin-2-yl)ethyl)piperidin-1-yl)-2,6-difluoro-N-(pyrimidin-4-yl)benzenesulfonamide formate] | 62.5 nM
CN(C)[C@@]1(CC2CCCC2)CCCN(c2cc(F)c(S(=O)(=O)Nc3ccncn3)c(F)c2)C1 [Example 99, (R)-4-(3-(Cyclopentylmethyl)-3-(dimethylamino)piperidin-1-yl)-2,6-difluoro-N-(pyrimidin-4-yl)benzenesulfonamide] | 8950 nM
CN(C)[C@]1(CC2CCCC2)CCCN(c2cc(F)c(S(=O)(=O)Nc3ccncn3)c(F)c2)C1 [Example 100, (S)-4-(3-(Cyclopentylmethyl)-3-(dimethylamino)piperidin-1-yl)-2,6-difluoro-N-(pyrimidin-4-yl)benzenesulfonamide] | 130 nM
